Test results as given in patent US20260174739A1 (priority 2022, published 2026).
Like-named read-outs stand apart in the source and are kept apart here.

What was measured:
[1] = In vivo metabolism (pharmacokinetic) experiment in mice; set-up: species or system male ICR mice; conditions: mouse, male ICR mice; for bioavailability: oral 10 mg/kg vs iv 2.5 mg/kg, read-out: F (%); for AUC(0-inf) / Cmax / half-life: oral 10 mg/kg, plasma; for AUC(0-inf): read-out: AUC0-inf(po); for Cmax: read-out: Cmax (po); for half-life: read-out: T1/2 (po) (converted)
Procedure: Animal: male ICR mice. The animals were randomly assigned to treatment groups and fasted for 12 h prior to dosing.
Drug: the compound of the present disclosure was dissolved in a vehicle (5% DMSO+5% Solutol HS15+90% saline). For intravenous (iv) administration, the dose was 2.5 mg/kg with a dosing volume of 5 mL/kg; for oral (po) administration, the dose was 10 mg/kg with a dosing volume of 10 mL/kg body weight. Sample collection and bioanalysis: blood was collected from the orbit of the mice and added into EP tubes containing heparin sodium at 0.083, 0.25, 0.5, 1, 2, 4, 6, and 8 h (n=3 for each time point). Immediately after blood collection, the mice were euthanized by cervical dislocation, and mouse brains were collected at the corresponding time points. All samples were promptly collected, snap-frozen, and stored at −70° C. for later use. Plasma samples were obtained by centrifugation of whole blood. 10 μL of plasma was mixed with 190 μL of internal standard solution (20 ng/ml in acetonitrile containing 0.1% formic acid). After mixing, the samples were centrifuged at 13000 rpm for 10 min, and 120 μL of the supernatant was separately collected. Depending on the sensitivity of the compound, 0.5-10 μL of the supernatant was taken for drug analysis using the appropriate liquid chromatography-tandem mass spectrometry (LC-MS/MS). Each analyte was calibrated and identified using standards. According to brain tissue: the extract (50% acetonitrile/water) at a ratio of 1 g:8 mL was homogenized for 2 min using five 3 mm magnetic beads in an OMNI Bead Ruptor 24 Elite homogenizer at 3.2 m/s and centrifuged at 4° C. and 3000 g for 3 min. 50 μL of the supernatant was mixed with 200 μL of internal standard solution (20 ng/mL in 80% acetonitrile/water). After mixing, the samples were centrifuged at 13,000 rpm for 10 min, and 120 μL of the supernatant was separately collected. Depending on the sensitivity of the compound, 0.5-10 μL of the supernatant was taken for drug analysis using the appropriate LC-MS/MS method. Each analyte was calibrated and identified using standards.
Data analysis: drug concentrations below the lower limit of quantification (LLOQ) were considered zero. Pharmacokinetic parameters were analyzed using PK Solver with a non-compartmental, bolus injection or extravascular input analysis models. Data points below the LLOQ were excluded to improve the efficacy of t1/2 calculation.

male C57 mice = assay: Forced swim test; type: in vivo; conditions: intraperitoneal injection, test 0.5 h after dosing, motionless time in last 4 min
Procedure: Drug: the compound of the present disclosure was first uniformly mixed with 5% DMSO and 5% Solutol® HS 15. hysiological saline was then added to make up 90% of the final volume. The mixture was prepared at an appropriate concentration immediately before use.
Animal: male C57 mice, about 22 g. The animals were randomly divided into a blank control group and test drug groups, 8 animals per group, and mice in each group were administered either the vehicle or the test compound via intraperitoneal injection.
Experimental steps: the mice were subjected to forced swim test 0.5 h after dosing. The water level in the forced swim device was 45 cm, and the water temperature was 25° C. The mice were placed in an experimental room to adapt to the environment for 1 h before the experiment began. When the experiment began, the mice were placed in the device for 6 min, and the whole process was recorded by a camera. Only the motionless time of the mice in the last 4 min was counted when data were analyzed.

human DAT = human DAT (Homo sapiens, UniProt Q01959); assay: DAT transporter inhibitory activity test (neurotransmitter transporter uptake assay kit); type: cell-based
Sequence of human DAT (Q01959 whole entry): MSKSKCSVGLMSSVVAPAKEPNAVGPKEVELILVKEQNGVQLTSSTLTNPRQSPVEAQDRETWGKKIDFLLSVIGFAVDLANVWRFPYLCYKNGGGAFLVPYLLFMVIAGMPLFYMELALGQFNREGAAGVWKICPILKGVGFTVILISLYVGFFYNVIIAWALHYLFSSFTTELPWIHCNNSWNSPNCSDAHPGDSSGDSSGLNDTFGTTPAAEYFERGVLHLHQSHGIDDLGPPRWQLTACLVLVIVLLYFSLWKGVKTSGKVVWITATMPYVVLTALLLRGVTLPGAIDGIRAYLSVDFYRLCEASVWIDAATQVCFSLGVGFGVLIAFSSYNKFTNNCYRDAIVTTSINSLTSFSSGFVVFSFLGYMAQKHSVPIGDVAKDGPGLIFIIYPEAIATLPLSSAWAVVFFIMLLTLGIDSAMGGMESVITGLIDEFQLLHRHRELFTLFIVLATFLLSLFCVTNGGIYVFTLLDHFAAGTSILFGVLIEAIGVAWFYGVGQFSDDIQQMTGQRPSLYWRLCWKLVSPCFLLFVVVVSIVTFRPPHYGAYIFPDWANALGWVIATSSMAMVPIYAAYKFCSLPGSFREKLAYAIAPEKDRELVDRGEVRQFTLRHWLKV
Procedure: Transporter inhibition of human DAT and NET expressed in HEK-293 cells was assessed using a neurotransmitter transporter uptake assay kit. The assay was performed as described in the kit instructions, using centanafadine as a positive control. The specific procedures were as follows:
DAT stably transfected culture: The DAT-HEK cell line was cultured in DMEM medium containing 10% fetal bovine serum and 0.2 mg/mL hygromycin B at 37° C. with 5% carbon dioxide.
DAT stably transfected cell passage: the old medium was removed, and the cells were washed once with PBS; 1 mL of TrypLE™ Express solution was then added, and the cells were incubated at 37° C. for about 2 min. When the cells were detached from the bottom of the dish, about 5 mL of complete medium pre-heated at 37° C. was added. The cell suspension was gently pipetted to separate the aggregated cells. The cell suspension was transferred to a sterile centrifuge tube and centrifuged at 1000 rpm for 5 min. In order to maintain the physiological activity of the cells, the experimental cell confluence was controlled at about 80%.
• a) After overnight transfection of NET cells, the cells were digested with trypsin, resuspended with DMEM+10% Dialyzed FBS medium, seeded into a 384-well plate at 20000 cells/well, and incubated overnight. […] After centrifuging, the plate was incubated at 37° C. for 30 min. • e) A detection reagent was prepared using 1×HBSS, and 16 μL of the detection reagent was added to each well. […] Curve fitting and IC50 calculation were performed using GraphPad Prism software nonlinear regression method.

[2] = Human liver microsome assay (metabolic stability); type: in vitro ADME; conditions: for half-life at 1 μM / CLint scaled at 1 μM: pH 7.4
Procedure: Control and reagent: NADPH, magnesium chloride, testosterone, phosphate buffer, etc. were supplied by Dalian Meilun Biotech Co., Ltd., etc.
Liver microsome: human liver microsomes were supplied by Corning.
Experimental step: the liver microsome incubations were performed in 96-well plates, each incubation system having a volume of 200 μL, in a medium of 0.1 M phosphate buffer (pH 7.4), including liver microsomes at a final concentration of 0.2 mg/mL, 1 μM of the test drug, 3.0 mM MgCl2, 0.01% DMSO, 0.5% acetonitrile, and 2.0 mM NADPH. The incubation system described above without NADPH was pre-incubated at 37° C. for 5 min using a rotary water bath constant temperature oscillator. NADPH was added to initiate the reaction. At 0, 5, 15, 30, and 60 min, 20 μL of the sample was taken out from the incubation system after mixing well and added to 200 μL of acetonitrile containing an internal standard to terminate the reaction. Under the same conditions, 1 μM testosterone was used as a positive control to assess the reliability of the reaction system. For the negative control, phosphate buffer was used instead of NADPH, and all other incubation conditions remained the same. At 60 min, 20 μL of the sample was taken out after mixing well and added to 200 μL of termination solution containing an internal standard to terminate the reaction.
Sample analysis: After treatments such as precipitated protein extraction with an organic solvent, the incubated sample was analyzed using liquid chromatography-tandem mass spectrometry (LC-MS/MS). The concentrations of the test drug or the positive control drug in the sample were semi-quantified. The concentration in the sample was expressed using the ratio of the analyte peak area to the internal standard peak area.
Data processing and analysis: A standard curve of the In residual rate of the drug in the incubation system with respect to the incubation time was plotted by using Excel software, linear regression was performed to obtain a slope k, and the half-life T1/2 (min) and the intrinsic clearance CLint (mL/min/kg) were calculated according to the following formula: […]

human SERT = human SERT (Homo sapiens, UniProt P31645); assay: Inhibitory activity assay against 5-HT transporter (neurotransmitter transporter uptake assay kit); type: cell-based; conditions: HEK-293 cells overexpressing human SERT; read-out: 5-HTT (IC50)
Sequence of human SERT (P31645 whole entry): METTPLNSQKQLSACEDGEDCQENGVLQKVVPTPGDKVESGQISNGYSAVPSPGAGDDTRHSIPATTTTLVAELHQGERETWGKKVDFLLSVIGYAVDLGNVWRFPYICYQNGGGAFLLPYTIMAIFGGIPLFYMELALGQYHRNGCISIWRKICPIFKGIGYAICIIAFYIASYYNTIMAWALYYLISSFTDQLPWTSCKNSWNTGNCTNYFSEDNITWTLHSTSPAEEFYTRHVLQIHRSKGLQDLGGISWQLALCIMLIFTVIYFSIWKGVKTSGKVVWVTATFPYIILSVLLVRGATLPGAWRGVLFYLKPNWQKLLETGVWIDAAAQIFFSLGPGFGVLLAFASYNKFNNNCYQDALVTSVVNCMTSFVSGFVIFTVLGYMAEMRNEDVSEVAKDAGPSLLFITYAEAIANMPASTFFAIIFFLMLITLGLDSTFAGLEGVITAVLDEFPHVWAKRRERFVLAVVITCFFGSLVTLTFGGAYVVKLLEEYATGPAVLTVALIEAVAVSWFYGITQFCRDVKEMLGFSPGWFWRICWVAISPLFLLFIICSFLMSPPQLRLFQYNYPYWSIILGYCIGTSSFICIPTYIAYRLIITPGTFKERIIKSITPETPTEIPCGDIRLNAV
Procedure: In HEK-293 cells overexpressing human SERT, the transporter inhibitory effect of the test compound on human SERT was assayed using a Neurotransmitter transporter uptake assay kit (Molecular devices).

[3] = human liver microsomes 0.2 mg/mL, 1 μM test drug, NADPH, 37° C., read-out: Half-life (t1/2, min)
[4] = human liver microsomes 0.2 mg/mL, 1 μM test drug, NADPH, 37° C., read-out: Intrinsic clearance (Clint, mL/min/kg)

For Nc1nc2c(s1)CC(N)(c1ccccc1)CC2 (racemic) [rac-A1, 6-phenyl-4,5,6,7-tetrahydrobenzothiazole-2,6-diamine], the bioavailability ([1]; male, ICR, po, 10 mg/kg) was 132%, the AUC(0-inf) ([1]; male, ICR, po, 10 mg/kg) was 2830 ng·h/mL and the Cmax ([1]; male, ICR, po, 10 mg/kg) was 413 ng/mL. The half-life ([1]; male, ICR, po, 10 mg/kg) was 4.68 h and the “Effective dose” value (male C57 mice) was 1 mg/kg.

Compound CCCNC1(c2ccccc2)CCc2nc(N)sc2C1 (racemic) [rac-A7, 6-phenyl-N^6-propyl-4,5,6,7-tetrahydrobenzothiazole-2,6-diamine] has an IC50 (human DAT) of 4.5 µM, a bioavailability ([1]; male, ICR, po, 10 mg/kg) of 55% and an AUC(0-inf) ([1]; male, ICR, po, 10 mg/kg) of 768 ng·h/mL. It also gave a Cmax ([1]; male, ICR, po, 10 mg/kg) of 208 ng/mL, a half-life ([1]; male, ICR, po, 10 mg/kg) of 1.72 h and a half-life at 1 μM [2, 3] of over 120 min.

For Nc1nc2c(s1)CC(N)(c1ccccc1F)CC2 (racemic) [rac-A9, 6-(2-fluorophenyl)-4,5,6,7-tetrahydrobenzothiazole-2,6-diamine], the “Effective dose” value (male C57 mice) was 1 mg/kg and the IC50 (human SERT) was 0.8 µM.

In the case of c1ccc(C2(N3CCCC3)CCc3[nH]ncc3C2)cc1 (racemic) [rac-A12, 5-phenyl-5-(pyrrolidin-1-yl)-4,5,6,7-tetrahydro-1H-indazole], the CLint scaled at 1 μM ([2]; human, microsomes) is reported as 12.4 mL/min/kg, the half-life at 1 μM ([2]; human, microsomes) is reported as 327 min and the “Effective dose” value (male C57 mice) is reported as 1 mg/kg.

Compound NC1(c2ccccc2)CCc2ncsc2C1 (racemic) [rac-A14, 6-phenyl-4,5,6,7-tetrahydrobenzothiazol-6-amine] has a bioavailability ([1]; male, ICR, po, 10 mg/kg) of 105%, an AUC(0-inf) ([1]; male, ICR, po, 10 mg/kg) of 2900 ng·h/mL and a Cmax ([1]; male, ICR, po, 10 mg/kg) of 1430 ng/mL. For the same compound, the half-life ([1]; male, ICR, po, 10 mg/kg) was 1.5 h, the half-life at 1 μM [2, 3] was over 120 min and the “Effective dose” value (male C57 mice) was 3 mg/kg.

In the case of NC1(c2ccccc2)CCCc2sccc21 (racemic) [rac-A16, 4-phenyl-4,5,6,7-tetrahydrobenzothiophen-4-amine], the bioavailability [1] is reported as 41%, the AUC(0-inf) [1] is reported as 501 ng·h/mL and the Cmax [1] is reported as 252 ng/mL. For the same compound, the half-life [1] was 1.76 h, the half-life at 1 μM [2, 3] was 42 min and the CLint scaled at 1 μM [2, 4] was 95.5 mL/min/kg. The “Effective dose” value (male C57 mice) was 3 mg/kg.

Nc1nc2c(s1)CCCC2(N)c1ccccc1 (racemic) [rac-A35, 4-phenyl-4,5,6,7-tetrahydrobenzothiazole-2,4-diamine] gave an AUC(0-inf) ([1]; male, ICR, po, 10 mg/kg) of 5110 ng·h/mL, a Cmax ([1]; male, ICR, po, 10 mg/kg) of 1140 ng/mL and a half-life ([1]; male, ICR, po, 10 mg/kg) of 2.66 h. For the same compound, the “Effective dose” value (male C57 mice) was 3 mg/kg.

In the case of c1ccc(C2(N3CCCC3)CCc3oncc3C2)cc1 (racemic) [rac-A55, 5-phenyl-5-(pyrrolidin-1-yl)-4,5,6,7-tetrahydrobenzo[d]isoxazole], the IC50 (human DAT; DAT stably transfected HEK cells, read-out: DAT (IC50)) is reported as 4.5 µM, the half-life at 1 μM [2, 3] is reported as 62 min and the CLint scaled at 1 μM [2, 4] is reported as 65.8 mL/min/kg. It also gave an IC50 (human SERT) of 7.2 µM.

With c1ccc(C2(N3CCCCC3)CCc3[nH]ncc3C2)cc1 (racemic) [rac-A70, 5-phenyl-5-(piperidin-1-yl)-4,5,6,7-tetrahydro-1H-indazole] the half-life at 1 μM [2, 3] was over 120 min and the “Effective dose” value (male C57 mice) was 1 mg/kg.

For Nc1nc2c(s1)CCC(N)(c1ccccc1)C2 (racemic) [rac-A132, 5-phenyl-4,5,6,7-tetrahydrobenzo[d]thiazole-2,5-diamine], the “Effective dose” value (male C57 mice) was 3 mg/kg.

For CCOc1cccc(C2(N)CCc3nc(N)sc3C2)c1 (racemic) [rac-A228, 6-(3-ethoxyphenyl)-4,5,6,7-tetrahydrobenzo[d]thiazole-2,6-diamine], the “Effective dose” value (male C57 mice) was 5 mg/kg.

In the case of Nc1nc2c(s1)CC(N)(c1cccc(OCC(F)(F)F)c1)CC2 (racemic) [rac-A255, 6-(3-(2,2,2-trifluoroethoxy)phenyl)-4,5,6,7-tetrahydrobenzo[d]thiazole-2,6-diamine], the “Effective dose” value (male C57 mice) is reported as 5 mg/kg.

With Nc1nc2c(s1)CC(N)(c1cccc(OC(F)F)c1)CC2 (racemic) [rac-A256, 6-(3-(difluoromethoxy)phenyl)-4,5,6,7-tetrahydrobenzo[d]thiazole-2,6-diamine] the “Effective dose” value (male C57 mice) was 5 mg/kg.

With Nc1nc2c(s1)CC(N)(c1cccc(OCC3CC3)c1)CC2 (racemic) [rac-A259, 6-(3-(cyclopropylmethoxy)phenyl)-4,5,6,7-tetrahydrobenzo[d]thiazole-2,6-diamine] the “Effective dose” value (male C57 mice) was 5 mg/kg.

In the case of CNC1(c2cccc(OC(F)F)c2)CCc2nc(N)sc2C1 (racemic) [rac-A282, 6-(3-(difluoromethoxy)phenyl)-N6-methyl-4,5,6,7-tetrahydrobenzo[d]thiazole-2,6-diamine], the “Effective dose” value (male C57 mice) is reported as 5 mg/kg.

In the case of C[C@]12CC[C@H]3[C@@H](CCC4=CC(=O)CC[C@@]43C)[C@@H]1CC[C@@H]2O [Testosterone, testosterone, reference compound], the “Half-life (t1/2, min)” value ([2]; human liver microsomes 0.2 mg/mL, 1 μM test drug, NADPH, 37° C.) is reported as 15.3 min and the CLint scaled at 1 μM [2, 4] is reported as 265 mL/min/kg.
